Like-named read-outs stand apart in the source and are kept apart here.

The values that follow come from patent US12486227B2, “Small molecules for cancer therapy that reduce the expression of transcription factors KLF5 and EGR-1” (University of Florida Research Foundation, Incorporated, priority 2019, dated 2025).

One assay relates to human KLF5 promoter. Briefly: KLF5 promoter activity luciferase assay in DLD-1/pGL4.18hKLF5p cells. The class given is cell-based. To be noted: for EC50: read-out: Approximate potency (EC50 · mol/L) (luciferase). As to the method:
To examine the impact of these compounds on viability of CRC cell lines, we performed cell proliferation and cell growth assays using DLD-1 and HCT116 CRC cells. […] KLF5 promoter activity assay. DLD-1/pGL4.18hKLF5p cells were seeded in 96 well plate format and treated with DMSO or with test compounds dissolved in DMSO in the range of 0.001 to 20 μM final concentration for 24 h and the human KLF5 promoter activity was determined with the ONE-Glo luciferase assay system (Promega) using a SpectramMax M3 (Molecular Devices) plate reader. The IC50 values were calculated using GraphPad Prism version 5.00 for Windows (GraphPad Software) (22).

The subject of another assay is DLD-1 colon cancer cells. Briefly: MTT viability assay, DLD-1. The class given is cell-based. To be noted: Homo sapiens. The source says:
Specific Examples of compounds of the present disclosure have EC50 values estimated using a cell-based assay for binding to the KLF5 promoter and, in many cases, a follow-up viability assay (MTT) using DLD-1 colon cancer cells, a cell line known to highly express KLF5 and whose growth is adversely affected by the reduction of KLF5 levels. Assay protocols follow those described in the literature.^22,23 Other assays that are not described here but that are standard in the field may also be useful in establishing mechanism of action of these compounds.

Assay [1] has as its system HCT-116 colorectal cancer cell line. As to the kind of experiment: MTT growth assay, HCT-116. The class given is cell-based. The note with it: Homo sapiens, Table 1. The source says:
(§1) The observed activity is greater than that previously seen for ML264.
(In general: Formazan colour is commonly taken as a measure of viable cells.)

Assay [2] relates to HT-29 colorectal cancer cell line. Briefly: MTT growth assay, HT-29. It counts as cell-based. The note with it: Homo sapiens, Table 1.
From the text: as §1

The subject of assay [3] is SW-620 colorectal cancer cell line. Briefly: MTT growth assay, SW-620. The class given is cell-based. To be noted: Homo sapiens, Table 1.
From the text: as §1

The next assay has as its system KLF5. As to the kind of experiment: Western blot of KLF5 protein levels in DLD-1 cells. To be noted: 1 μM and 10 μM, 24 h. The class given is cell-based, human. As for the experimental part:
In this experiment the test compounds were at 1 μM and 10 μM, and protein levels were measured after 24 h.
(§2) Western blot analysis. Total protein was extracted from cells with Laemmli buffer and the analysis was performed as described previously (24).
(In general: A western blot detects proteins with antibodies after separation by electrophoresis.)

The test system of assay [4] is DLD-1 and HCT116 CRC cells. As to the kind of experiment: Cell cycle analysis by flow cytometry (propidium iodide). It counts as cell-based, human. To be noted: 10 μM, over three days. As to the method:
SR18662 alters the cell cycle pattern of CRCs. […] We have also evaluated the impact of SR15006 and SR18662 on cell cycle progression. We treated DLD-1 and HCT116 CRC cells over the course of three days with vehicle or 1 μM or 10 μM of test compound and then analyzed cell cycle using flow cytometry.
Cell proliferation, cell cycle and apoptosis assays. For cell proliferation experiments, cell cycle, and apoptosis determination, DLD-1 and HCT116 cells were treated with 1 or 10 μM of each compound or with vehicle (DMSO). The cells were collected at 24, 48, and 72 h post-treatment and analyzed as previously described (24). Each experiment was performed in triplicate.

A further assay deals with MAPK pathway. As to the kind of experiment: Western blot of MAPK signaling pathway components. The class given is cell-based, human. To be noted: DLD-1 and HCT116, 10 μM, 72 h.
From the text: SR18662 negatively regulates MAPK and WNT signaling pathway and cyclin levels. Myriad publications have shown that in both in vitro and in vivo contexts KLF5 is regulated by MAPK and WNT signaling pathways and that KLF5, in turn, has the ability to modulate the activity of these pathways (14, 18, 26-32). We have previously shown that treatment of CRCs with ML264 results in decreased activity of both the MAPK and WNT signaling pathways (24). Because SR15006 and SRI8662 are structurally related to ML264, we decided to investigate their ability to alter the expression levels of the components of these pathways. Thus, we treated DLD-1 and HCT116 CRCs with DMSO (vehicle) and tested compounds at 1 μM or 10 μM, collecting the cells for western blot analysis at 24, 48, and 72 h. […] Similar effects were seen when both cell lines were treated these compounds at 1 μM. Furthermore, the inhibitory effects of SR18662 on the components of the MAPK signaling pathway we observed at earlier time points than were apparent following treatment with ML264 or SR15006.
as §2

The next assay relates to Cyclin D1, E, A2, and B1. As to the kind of experiment: Western blot of cyclin levels. It counts as cell-based, human. The note with it: DLD-1 and HCT116, 1 μM or 10 μM, 72 h.
From the text: Cyclins and their appropriate cyclin-dependent kinases form a regulatory network that allow cells to progress through the cell cycle (39, 40). […] SR15006, or SR18662, as compared to vehicle-treated cells. Thus, we investigated if these changes are accompanied by differences in the expression levels of cyclins. We focused our attention on Cyclin D1, E, A2, and B1, as we have previously shown that ML264 has inhibitory effect on their levels (24). […] Additionally, in contrast to ML264 or SR15006, SR18862 induced apoptosis and cell death.
as §2

Assay [5] deals with DLD-1-derived tumor xenografts. To be noted: once a day 25 mg/kg; cited from earlier work.
The mark [6] stands for this setting: Table 2, read-out: Approximate potency (EC50 · mol/L) (DLD1, MTT assay).

With `CS(=O)(=O)N1CCN(C(=O)CNC(=O)/C=C/c2ccc(F)c(F)c2)CC1` [Example 14, (E)-3-(3,4-difluorophenyl)-N-(2-(4-(methylsulfonyl)piperazin-1-yl)-2-oxoethyl)acrylamide], the EC50 amounted to 46.1 nM with human KLF5 promoter (Homo sapiens, DLD-1, Table 2) and 41 nM with DLD-1 colon cancer cells (setting [6]).
On to `CS(=O)(=O)NCC1CCN(C(=O)CNC(=O)/C=C/c2cccc(Cl)c2)C1` (centres unmarked) [Example 3, (E)-3-(3-chlorophenyl)-N-(2-(3-(methylsulfonamidomethyl)pyrrolidin-1-yl)-2-oxoethyl)acrylamide], for which the EC50 in the assay on human KLF5 promoter (Homo sapiens, DLD-1, Table 2) stood at 846 nM.
Regarding `CS(=O)(=O)NCC1CCN(C(=O)CNC(=O)/C=C/c2cccc(Cl)c2)CC1` [Example 2, (E)-3-(3-chlorophenyl)-N-(2-(4-(methylsulfonamidomethyl)piperidin-1-yl)-2-oxoethyl)acrylamide], the EC50 with human KLF5 promoter (Homo sapiens, DLD-1, Table 2) was 1410 nM; in the assay with DLD-1 colon cancer cells (setting [6]) it was 140 nM.
As for `CS(=O)(=O)N1CCC(CNC(=O)CNC(=O)/C=C/c2cccc(Cl)c2)CC1` [Example 4, (E)-3-(3-chlorophenyl)-N-(2-(((1-(methylsulfonyl)piperidin-4-yl)methyl)amino)-2-oxoethyl)acrylamide], in the assay on DLD-1 colon cancer cells (setting [6]), the EC50 is 2730 nM.
In the case of `CS(=O)(=O)N1CCN(C(=O)CNC(=O)/C=C/c2ccc(C(F)(F)F)c(Cl)c2)CC1` [Example 16, (E)-3-(3-chloro-4-(trifluoromethyl)phenyl)-N-(2-(4-(methylsulfonyl)piperazin-1-yl)-2-oxoethyl)acrylamide], in the assay on human KLF5 promoter (Table 2), the “Approximate potency (EC50 · mol/L) (luciferase)” value was “Not converged”. The EC50 with DLD-1 colon cancer cells (setting [6]) is 315 nM.
Regarding `Cc1ccc(/C=C/C(=O)NCC(=O)N2CCN(S(C)(=O)=O)CC2)cc1Cl` [Example 15, (E)-3-(3-chloro-4-methylphenyl)-N-(2-(4-(methylsulfonyl)piperazin-1-yl)-2-oxoethyl)acrylamide], the EC50 with human KLF5 promoter (Homo sapiens, DLD-1, Table 2) came to 6.28 nM; in the assay with DLD-1 colon cancer cells (setting [6]) it was 3.63 nM.
`CN(C(=O)CNC(=O)/C=C/c1cccc(Cl)c1)C1CCS(=O)(=O)CC1` [ML264, reference compound]: the EC50 with DLD-1 colon cancer cells (MTT, Table 1, read-out: EC50 (nM) DLD-1) came out at 13 nM; in [1] it was 34 nM; in assay [2], 295 nM; in assay [3], 412 nM. For the same molecule, the “KLF5 protein levels by Western blot” value with KLF5 is given as “significantly reduced”. Also, the cell cycle distribution entry in assay [4] was “significant decrease in the number of cells in G0/G1 and an increase in cells in S- and G2/M phases”. In addition, in the assay on MAPK pathway, the “expression levels of MAPK pathway components” value was “negatively regulated the expression levels of the components of the MAPK pathway”. Besides, in the assay with Cyclin D1, E, A2, and B1, the levels of cyclins result is “significant reduction in the levels of tested cyclins”. Further, the “growth of CRC xenografts” value in assay [5] is “significantly reduced the growth”.
Regarding `CS(=O)(=O)N1CCN(C(=O)CNC(=O)/C=C/c2cc(Cl)cc(Cl)c2)CC1` [Example 13, (E)-3-(3,5-dichlorophenyl)-N-(2-(4-(methylsulfonyl)piperazin-1-yl)-2-oxoethyl)acrylamide], the EC50 with human KLF5 promoter (Homo sapiens, DLD-1, Table 2) was found to be 108 nM; in the assay with DLD-1 colon cancer cells (setting [6]), 78.1 nM.
With `CS(=O)(=O)N1CCN(C(=O)CNC(=O)/C=C/c2cccc(Br)c2)CC1` [Example 12, (E)-3-(3-bromophenyl)-N-(2-(4-(methylsulfonyl)piperazin-1-yl)-2-oxoethyl)acrylamide], the EC50 in the assay with human KLF5 promoter (Homo sapiens, DLD-1, Table 2) worked out at 87.8 nM; in the assay on DLD-1 colon cancer cells (setting [6]) it was 73.5 nM.
In the case of `COc1ccc(/C=C/C(=O)NCC(=O)N2CCN(S(C)(=O)=O)CC2)cc1Cl` [Example 10, (E)-3-(3-chloro-4-methoxyphenyl)-N-(2-(4-(methylsulfonyl)piperazin-1-yl)-2-oxoethyl)acrylamide], the EC50 is 170 nM with human KLF5 promoter (Homo sapiens, DLD-1, Table 2) and 63.8 nM in the assay on DLD-1 colon cancer cells (setting [6]).
Take `CS(=O)(=O)N1CCC(CNC(=O)CNC(=O)/C=C/c2cccc(Cl)c2)C1` (centres unmarked) [Example 5, (E)-3-(3-chlorophenyl)-N-(2-(((1-(methylsulfonyl)pyrrolidin-3-yl)methyl)amino)-2-oxoethyl)acrylamide]: the EC50 in the assay on DLD-1 colon cancer cells (setting [6]) stood at 3.26 nM.
In the case of `CS(=O)(=O)N1CCN(C(=O)CNC(=O)/C=C/c2ccc(OC(F)(F)F)c(Cl)c2)CC1` [Example 17, (E)-3-(3-chloro-4-(trifluoromethoxy)phenyl)-N-(2-(4-(methylsulfonyl)piperazin-1-yl)-2-oxoethyl)acrylamide], the EC50 worked out at 7910 nM in the assay with human KLF5 promoter (Homo sapiens, DLD-1, Table 2) and 1610 nM with DLD-1 colon cancer cells (setting [6]).
Turning to `CS(=O)(=O)N1CCN(C(=O)CNC(=O)/C=C/c2cccc(Cl)c2)CC1` [Example 1, (E)-3-(3-chlorophenyl)-N-(2-(4-(methylsulfonyl)piperazin-1-yl)-2-oxoethyl)acrylamide], the IC50 (commonly the concentration that inhibits the measured activity by half) with human KLF5 promoter (Homo sapiens, DLD-1, 24 h treatment, FIG. 1B, read-out: IC50, human KLF5 promoter activity) was determined as 41.6 nM. The EC50 in the assay with human KLF5 promoter (Homo sapiens, DLD-1, Table 2) was 41.6 nM; with DLD-1 colon cancer cells (setting [6]) it was 16.3 nM. The “KLF5 protein levels by Western blot” value in the assay with KLF5 was “significantly reduced”. For the same molecule, the cell cycle distribution entry in [4] is given as “affected the cell cycle in the similar way as did ML264”. Besides, in the assay on MAPK pathway, the “expression levels of MAPK pathway components” value is given as “negatively regulated the expression levels of the components of the MAPK pathway”. The levels of cyclins result with Cyclin D1, E, A2, and B1 is listed as “significant reduction in the levels of tested cyclins”.
For the molecule `O=C(/C=C/c1cccc(Cl)c1)NCC(=O)N1CCN(S(=O)(=O)C2CCCCC2)CC1` [Example 7, (E)-3-(3-chlorophenyl)-N-(2-(4-(cyclohexylsulfonyl)piperazin-1-yl)-2-oxoethyl)acrylamide], the EC50 in the assay on human KLF5 promoter (Homo sapiens, DLD-1, Table 2) is 1280 nM; in the assay with DLD-1 colon cancer cells (setting [6]), 347 nM.
The like results for `CS(=O)(=O)N1CCN(C(=O)CNC(=O)/C=C/c2ccc3c(c2)OCO3)CC1` [Example 18, (E)-3-(benzo[d][1,3]dioxol-5-yl)-N-(2-(4-(methylsulfonyl)piperazin-1-yl)-2-oxoethyl)acrylamide] were, in that order, 20.1 nM and 15.3 nM.
In the case of `CS(=O)(=O)N1CCN(C(=O)CNC(=O)/C=C/c2ccc(F)c(Cl)c2)CC1` [Example 11, (E)-3-(3-chloro-4-fluorophenyl)-N-(2-(4-(methylsulfonyl)piperazin-1-yl)-2-oxoethyl)acrylamide], the EC50 in the assay on human KLF5 promoter (Homo sapiens, DLD-1, Table 2) came out at 26.1 nM; with DLD-1 colon cancer cells (setting [6]), 25.3 nM.
Take `CC(C)CS(=O)(=O)N1CCN(C(=O)CNC(=O)/C=C/c2cccc(Cl)c2)CC1` [Example 8, (E)-3-(3-chlorophenyl)-N-(2-(4-(isobutylsulfonyl)piperazin-1-yl)-2-oxoethyl)acrylamide]: the EC50 came to 7050 nM in the assay with human KLF5 promoter (Homo sapiens, DLD-1, Table 2) and 322 nM in the assay with DLD-1 colon cancer cells (setting [6]).
As for `CS(=O)(=O)N1CCCN(C(=O)CNC(=O)/C=C/c2cccc(Cl)c2)CC1` [Example 6, (E)-3-(3-chlorophenyl)-N-(2-(4-(methylsulfonyl)-1,4-diazepan-1-yl)-2-oxoethyl)acrylamide], in the assay on human KLF5 promoter (Homo sapiens, DLD-1, Table 2), the EC50 stood at 1080 nM.
